15 compounds from US20260325533A1, “CDK INHIBITOR COMPOUNDS” (ALEKSIA THERAPEUTICS, INC., priority 2023, published 2026) can be followed below.

Like-named read-outs stand apart in the source and are kept apart here.

Common to all, as to format: biochemical
The target in one test is CDK2/CCNE1 (Homo sapiens, UniProt P24941). The test is described as follows: CDK2 homogeneous time-resolved fluorescence (HTRF) kinase assay. The following applies: CDK2/CCNE. An outline of the steps: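 IC50 derived from 11-point, half-log dilutions (usually top 10 μM) of compound, 1% DMSO. Kinase (3 nM CDK2/CCNE1) was preincubated with compound 20 min, then phosphorylated 50 nM ULight-4E-BP1 peptide at 1 mM ATP for 60 min, 23 °C. Europium-antibody TR-FRET read after EDTA stop.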
Background: In TR-FRET formats the signal depends on donor and acceptor labels being close together.

The target in another test is CDK4/CCND3 (Homo sapiens, UniProt P11802). The test is described as follows: CDK4 homogeneous time-resolved fluorescence (HTRF) kinase assay. The following applies: CDK4/CCND. An outline of the steps: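 HTRF kinase assay, CDK4/CCND3 1.5 nM, ATP 1 mM, ULight-4E-BP1 peptide 50 nM, 23 °C, 60 min reaction after 20 min preincubation. Eu-anti-pThr37/46 antibody detection. 11-pt half-log curves from 10 μM → IC50.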

A further test deals with CDK6/CCND1 (Homo sapiens, UniProt Q00534). Description: CDK6 homogeneous time-resolved fluorescence (HTRF) kinase assay. The settings on record: CDK6/CCND, 1 mM ATP. An outline of the steps:
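Recombinant CDK6/CCND1 (1 nM final) was preincubated with compound for 20 min at 23 °C in HEPES buffer with MgCl2, EGTA, DTT and Tween 20. Kinase reaction then ran 60 min at 23 °C with 1 mM ATP and 50 nM ULight-4E-BP1 (Thr37/46) peptide, and was stopped with EDTA.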

The next test concerns the target CDK1/CCNB1 (Homo sapiens, UniProt P06493). Description: CDK1 homogeneous time-resolved fluorescence (HTRF) kinase assay. The following applies: CDK1/CCNB. An outline of the steps:
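HTRF assay with 0.5 nM CDK1/CCNB1, 1 mM ATP, 50 nM ULight-eIF4E-BP1 (Thr37/46) peptide; compound preincubated 20 min, reaction 60 min at 23 °C, EDTA stop, Eu-anti-phospho antibody detection. 11-point half-log titration from 10 μM, 1% DMSO; IC50 from 665 nm or 665/615 signal.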

Setting [1] is: >250 nM, read-out: CDK4/CCND IC50, >250 nM.
The mark [2] stands for this setting: >250 nM, read-out: CDK6/CCND IC50, >250 nM.
Setting [3] is: >250 nM, read-out: CDK1/CCNB IC50 >250 nM.
The mark [4] stands for this setting: 25-250 nM, read-out: CDK2/CCNE IC50, 25-250 nM.
[5] abbreviates: <25 nM, read-out: CDK2/CCNE IC50, <25 nM.
Setting [6] is: 25-250 nM, read-out: CDK6/CCND IC50, 25-250 nM.
Where [7] appears, read: 25-250 nM, read-out: CDK1/CCNB IC50, 25-250 nM.

Chain of CDK1/CCNB1 (P06493 whole entry): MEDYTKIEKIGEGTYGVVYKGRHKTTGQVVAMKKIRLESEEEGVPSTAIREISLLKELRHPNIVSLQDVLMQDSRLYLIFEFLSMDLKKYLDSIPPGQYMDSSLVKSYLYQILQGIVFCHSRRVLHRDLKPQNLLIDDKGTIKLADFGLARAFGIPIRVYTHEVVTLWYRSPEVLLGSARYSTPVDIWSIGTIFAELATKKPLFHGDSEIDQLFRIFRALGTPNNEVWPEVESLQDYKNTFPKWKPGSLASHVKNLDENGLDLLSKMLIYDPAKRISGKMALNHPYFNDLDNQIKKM
Chain of CDK1/CCNB1 (P14635 whole entry partner): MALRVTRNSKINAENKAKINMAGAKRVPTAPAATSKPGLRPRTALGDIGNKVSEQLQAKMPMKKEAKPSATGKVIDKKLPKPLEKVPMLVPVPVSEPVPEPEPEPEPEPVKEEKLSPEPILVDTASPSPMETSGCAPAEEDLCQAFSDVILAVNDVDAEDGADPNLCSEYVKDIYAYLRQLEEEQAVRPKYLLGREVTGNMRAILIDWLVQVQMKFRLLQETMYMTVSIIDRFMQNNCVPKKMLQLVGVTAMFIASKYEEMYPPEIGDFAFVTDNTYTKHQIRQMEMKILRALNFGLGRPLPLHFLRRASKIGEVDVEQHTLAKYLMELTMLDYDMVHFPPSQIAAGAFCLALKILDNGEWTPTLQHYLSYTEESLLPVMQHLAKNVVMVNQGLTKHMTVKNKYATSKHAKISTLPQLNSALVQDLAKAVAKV
Chain of CDK6/CCND1 (Q00534 whole entry): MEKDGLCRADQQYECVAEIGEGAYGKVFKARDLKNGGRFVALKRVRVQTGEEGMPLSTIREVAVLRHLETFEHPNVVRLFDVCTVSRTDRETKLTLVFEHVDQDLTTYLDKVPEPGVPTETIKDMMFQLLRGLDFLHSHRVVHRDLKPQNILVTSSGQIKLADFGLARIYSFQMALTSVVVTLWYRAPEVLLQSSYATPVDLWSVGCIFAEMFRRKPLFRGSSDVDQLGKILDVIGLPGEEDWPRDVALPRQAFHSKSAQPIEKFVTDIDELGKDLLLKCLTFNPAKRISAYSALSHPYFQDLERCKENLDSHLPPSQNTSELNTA
Chain of CDK6/CCND1 (P24385 whole entry partner): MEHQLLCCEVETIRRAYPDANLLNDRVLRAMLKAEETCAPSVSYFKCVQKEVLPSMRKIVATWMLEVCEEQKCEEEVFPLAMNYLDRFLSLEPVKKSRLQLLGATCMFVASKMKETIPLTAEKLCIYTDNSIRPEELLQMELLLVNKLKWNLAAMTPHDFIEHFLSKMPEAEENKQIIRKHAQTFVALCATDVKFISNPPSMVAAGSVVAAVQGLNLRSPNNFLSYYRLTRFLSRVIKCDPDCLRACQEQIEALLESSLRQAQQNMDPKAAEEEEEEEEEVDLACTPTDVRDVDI
Chain of CDK4/CCND3 (P11802 whole entry): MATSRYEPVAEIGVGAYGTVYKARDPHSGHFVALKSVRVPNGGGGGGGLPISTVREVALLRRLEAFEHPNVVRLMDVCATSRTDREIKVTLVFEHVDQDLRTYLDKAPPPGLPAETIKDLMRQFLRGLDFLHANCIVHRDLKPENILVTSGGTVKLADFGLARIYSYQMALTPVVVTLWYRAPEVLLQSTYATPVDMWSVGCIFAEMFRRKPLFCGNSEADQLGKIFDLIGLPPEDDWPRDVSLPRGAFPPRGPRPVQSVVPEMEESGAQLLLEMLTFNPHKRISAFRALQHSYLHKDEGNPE
Chain of CDK4/CCND3 (P30281 whole entry partner): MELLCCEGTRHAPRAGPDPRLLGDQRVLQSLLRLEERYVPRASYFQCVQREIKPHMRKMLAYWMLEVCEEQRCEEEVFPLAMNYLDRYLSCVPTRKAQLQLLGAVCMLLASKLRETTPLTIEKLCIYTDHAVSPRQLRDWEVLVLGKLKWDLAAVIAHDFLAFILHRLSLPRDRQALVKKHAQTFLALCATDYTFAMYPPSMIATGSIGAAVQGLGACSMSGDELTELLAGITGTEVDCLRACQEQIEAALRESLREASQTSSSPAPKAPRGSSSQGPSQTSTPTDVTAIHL

Take `Cc1ccccc1NS(=O)(=O)c1ccc(Nc2cc3c(-c4ccc5c(cnn5CC(O)(C(F)(F)F)C(F)(F)F)c4C)nccc3cn2)cc1` [Ex 715, 4-((5-(4-methyl-1-(3,3,3-trifluoro-2-hydroxy-2-(trifluoromethyl)propyl)-1H-indazol-5-yl)-2,6-naphthyridin-3-yl)amino)-N-(o-tolyl)benzenesulfonamide]: the IC50 at CDK2/CCNE1 (>250 nM, read-out: CDK2/CCNE IC50, >250 nM) is more than 250 nM; at CDK4/CCND3 (setting [1]), more than 250 nM; at CDK6/CCND1 (setting [2]), more than 250 nM; on CDK1/CCNB1 (setting [3]) it was more than 250 nM.
Regarding `COc1cccc(NS(=O)(=O)c2ccc(Nc3cc4c(-c5ccc6c(cnn6CC(O)(C(F)(F)F)C(F)(F)F)c5C)nccc4cn3)cc2)c1` [Ex 717, N-(3-methoxyphenyl)-4-((5-(4-methyl-1-(3,3,3-trifluoro-2-hydroxy-2-(trifluoromethyl)propyl)-1H-indazol-5-yl)-2,6-naphthyridin-3-yl)amino)benzenesulfonamide], the IC50 on CDK2/CCNE1 (setting [4]) is 25 to 250 nM; at CDK4/CCND3 (setting [1]), more than 250 nM; at CDK6/CCND1 (setting [2]), more than 250 nM; at CDK1/CCNB1 (setting [3]) it was more than 250 nM.
Regarding `COc1ccc(NS(=O)(=O)c2ccc(Nc3cc4c(-c5ccc6c(cnn6CC(O)(C(F)(F)F)C(F)(F)F)c5C)nccc4cn3)cc2)cc1` [Ex 718, N-(4-methoxyphenyl)-4-((5-(4-methyl-1-(3,3,3-trifluoro-2-hydroxy-2-(trifluoromethyl)propyl)-1H-indazol-5-yl)-2,6-naphthyridin-3-yl)amino)benzenesulfonamide], the IC50 is 25 to 250 nM at CDK2/CCNE1 (setting [4]), more than 250 nM at CDK4/CCND3 (setting [1]), more than 250 nM at CDK6/CCND1 (setting [2]) and more than 250 nM on CDK1/CCNB1 (setting [3]).
As for `COc1ccc(NS(=O)(=O)c2ccc(Nc3cc4c(-c5ccc6c(cnn6CC(O)(C(F)(F)F)C(F)(F)F)c5C)nccc4cn3)cc2)nc1` [Ex 719, N-(5-methoxypyridin-2-yl)-4-((5-(4-methyl-1-(3,3,3-trifluoro-2-hydroxy-2-(trifluoromethyl)propyl)-1H-indazol-5-yl)-2,6-naphthyridin-3-yl)amino)benzenesulfonamide], the IC50 is 25 to 250 nM at CDK2/CCNE1 (setting [4]), more than 250 nM at CDK4/CCND3 (setting [1]), more than 250 nM at CDK6/CCND1 (setting [2]) and more than 250 nM at CDK1/CCNB1 (setting [3]).
As to `Cc1c(-c2nccc3cnc(Nc4ccc(S(=O)(=O)Nc5cccc(C(F)(F)F)n5)cc4)cc23)ccc2c1cnn2CC(O)(C(F)(F)F)C(F)(F)F` [Ex 720, 4-((5-(4-methyl-1-(3,3,3-trifluoro-2-hydroxy-2-(trifluoromethyl)propyl)-1H-indazol-5-yl)-2,6-naphthyridin-3-yl)amino)-N-(6-(trifluoromethyl)pyridin-2-yl)benzenesulfonamide], the IC50 was 25 to 250 nM on CDK2/CCNE1 (setting [4]), more than 250 nM on CDK4/CCND3 (setting [1]), more than 250 nM at CDK6/CCND1 (setting [2]) and more than 250 nM at CDK1/CCNB1 (setting [3]).
As to `CC[C@H](C)NS(=O)(=O)c1ccc(Nc2cc3c(-c4ccc5c(cnn5CC(C)(C)O)c4C)nccc3cn2)cc1` [Ex 722, (S)-N-(sec-butyl)-4-((5-(1-(2-hydroxy-2-methylpropyl)-4-methyl-1H-indazol-5-yl)-2,6-naphthyridin-3-yl)amino)benzenesulfonamide], the IC50 was less than 25 nM at CDK2/CCNE1 (setting [5]), more than 250 nM on CDK4/CCND3 (setting [1]), more than 250 nM at CDK6/CCND1 (setting [2]) and more than 250 nM on CDK1/CCNB1 (setting [3]).
For `Cc1c(-c2nccc3cnc(Nc4ccc(S(N)(=O)=O)cc4)cc23)ccc2c1cnn2CC(O)(C(F)(F)F)C(F)(F)F` [Ex 726, 4-((5-(4-methyl-1-(3,3,3-trifluoro-2-hydroxy-2-(trifluoromethyl)propyl)-1H-indazol-5-yl)-2,6-naphthyridin-3-yl)amino)benzenesulfonamide], the IC50 at CDK2/CCNE1 (setting [5]) was less than 25 nM; on CDK4/CCND3 (setting [1]), more than 250 nM; at CDK6/CCND1 (setting [6]), 25 to 250 nM; on CDK1/CCNB1 (setting [7]), 25 to 250 nM.
As to `Cc1c(-c2nccc3cnc(Nc4ccc(S(=O)(=O)Nc5ncccn5)cc4)cc23)ccc2c1cnn2CC(O)(C(F)(F)F)C(F)(F)F` [Ex 727, 4-((5-(4-methyl-1-(3,3,3-trifluoro-2-hydroxy-2-(trifluoromethyl)propyl)-1H-indazol-5-yl)-2,6-naphthyridin-3-yl)amino)-N-(pyrimidin-2-yl)benzenesulfonamide], the IC50 on CDK2/CCNE1 (setting [5]) was less than 25 nM; at CDK4/CCND3 (setting [1]) it was more than 250 nM; at CDK6/CCND1 (setting [2]) it was more than 250 nM; at CDK1/CCNB1 (setting [3]), more than 250 nM.
With `Cc1c(-c2nccc3cnc(Nc4ccc(S(=O)(=O)Nc5ccccc5)cc4)cc23)ccc2c1cnn2CC(O)(C(F)(F)F)C(F)(F)F` [Ex 728, 4-((5-(4-methyl-1-(3,3,3-trifluoro-2-hydroxy-2-(trifluoromethyl)propyl)-1H-indazol-5-yl)-2,6-naphthyridin-3-yl)amino)-N-phenylbenzenesulfonamide], the IC50 was 25 to 250 nM on CDK2/CCNE1 (setting [4]), more than 250 nM on CDK4/CCND3 (setting [1]), more than 250 nM on CDK6/CCND1 (setting [2]) and more than 250 nM at CDK1/CCNB1 (setting [3]).
In the case of `Cc1c(-c2nccc3cnc(Nc4ccc(S(=O)(=O)NCc5ccccc5)cc4)cc23)ccc2c1cnn2CC(O)(C(F)(F)F)C(F)(F)F` [Ex 729, N-benzyl-4-((5-(4-methyl-1-(3,3,3-trifluoro-2-hydroxy-2-(trifluoromethyl)propyl)-1H-indazol-5-yl)-2,6-naphthyridin-3-yl)amino)benzenesulfonamide], the IC50 on CDK2/CCNE1 (setting [4]) was 25 to 250 nM; at CDK4/CCND3 (setting [1]) it was more than 250 nM; at CDK6/CCND1 (setting [2]), more than 250 nM; at CDK1/CCNB1 (setting [3]), more than 250 nM.
For `Cc1c(-c2nccc3cnc(Nc4ccc(S(=O)(=O)NCc5ccccc5)cc4)cc23)ccc2c1cnn2CC(C)(C)O` [Ex 730, N-benzyl-4-((5-(1-(2-hydroxy-2-methylpropyl)-4-methyl-1H-indazol-5-yl)-2,6-naphthyridin-3-yl)amino)benzenesulfonamide], the IC50 on CDK2/CCNE1 (setting [5]) was less than 25 nM; on CDK4/CCND3 (setting [1]), more than 250 nM; at CDK6/CCND1 (setting [2]), more than 250 nM; on CDK1/CCNB1 (setting [3]), more than 250 nM.
With `CCN(c1ncccn1)S(=O)(=O)c1ccc(Nc2cc3c(-c4ccc5c(cnn5CC(O)(C(F)(F)F)C(F)(F)F)c4C)nccc3cn2)cc1` [Ex 731, N-ethyl-4-((5-(4-methyl-1-(3,3,3-trifluoro-2-hydroxy-2-(trifluoromethyl)propyl)-1H-indazol-5-yl)-2,6-naphthyridin-3-yl)amino)-N-(pyrimidin-2-yl)benzenesulfonamide], the IC50 at CDK2/CCNE1 (setting [4]) is 25 to 250 nM; at CDK4/CCND3 (setting [1]), more than 250 nM; on CDK6/CCND1 (setting [2]), more than 250 nM; at CDK1/CCNB1 (setting [3]), more than 250 nM.
For the compound `Cc1c(-c2nccc3cnc(Nc4ccc(S(=O)(=O)N(C)c5ncccn5)cc4)cc23)ccc2c1cnn2CC(C)(C)O` [Ex 734, 4-((5-(1-(2-hydroxy-2-methylpropyl)-4-methyl-1H-indazol-5-yl)-2,6-naphthyridin-3-yl)amino)-N-methyl-N-(pyrimidin-2-yl)benzenesulfonamide], the IC50 on CDK2/CCNE1 (setting [5]) is less than 25 nM; at CDK4/CCND3 (25-250 nM, read-out: CDK4/CCND IC50, 25-250 nM), 25 to 250 nM; at CDK6/CCND1 (setting [6]), 25 to 250 nM; on CDK1/CCNB1 (setting [7]) it was 25 to 250 nM.
For `COc1cccc(NS(=O)(=O)c2ccc(Nc3cc4c(-c5ccc6c(cnn6CC(O)(C(F)(F)F)C(F)(F)F)c5C)nccc4cn3)cc2)n1` [Ex 735, N-(6-methoxypyridin-2-yl)-4-((5-(4-methyl-1-(3,3,3-trifluoro-2-hydroxy-2-(trifluoromethyl)propyl)-1H-indazol-5-yl)-2,6-naphthyridin-3-yl)amino)benzenesulfonamide], the IC50 at CDK2/CCNE1 (setting [4]) is 25 to 250 nM; at CDK4/CCND3 (setting [1]) it was more than 250 nM; on CDK6/CCND1 (setting [2]) it was more than 250 nM; on CDK1/CCNB1 (setting [3]) it was more than 250 nM.
For the compound `Cc1cc(C)nc(NS(=O)(=O)c2ccc(Nc3cc4c(-c5ccc6c(cnn6CC(O)(C(F)(F)F)C(F)(F)F)c5C)nccc4cn3)cc2)n1` [Ex 736, N-(4,6-dimethylpyrimidin-2-yl)-4-((5-(4-methyl-1-(3,3,3-trifluoro-2-hydroxy-2-(trifluoromethyl)propyl)-1H-indazol-5-yl)-2,6-naphthyridin-3-yl)amino)benzenesulfonamide], the IC50 at CDK2/CCNE1 (setting [5]) is less than 25 nM; at CDK4/CCND3 (setting [1]), more than 250 nM; on CDK6/CCND1 (setting [2]), more than 250 nM; on CDK1/CCNB1 (setting [3]), more than 250 nM.
